Measured values as given in patent EP4389156A1, “RA[…] LIGAND COMPOUNDS AND PRECURSORS THEREOF” (Technische Universität München, priority 2022, dated 2024).
Values joined by “and” are separate entries in the source; they are usually repeats but may differ in a detail not shown here. Equal values may be shown once.

Columns and labels:
LNCaP cells = assay: PSMA-mediated internalization into LNCaP cells; format: cell-based; conditions: 1 h
Procedure: (§1) Competitive binding studies were carried out in analogy to a previously reported procedure. As a modification the non-radiolabeled standard competitor (((S)-1-carboxy-5-(4-(iodo)benzamido)pentyl)carbamoyl)-L-glutamic acid (IBA-KuE) was applied in increasing concentrations (10^-5 - 10^-11 M/well, n = 3 each) whereas the novel PSMA-binding compounds of interest were applied as ^99mTc-labeled radioligands (0.2 nM/well). In this inversed experimental approach, higher values correspond to higher affinities and are referred to as inverse IC50. Poly-L-lysine coated 24-well plates were used (n = 3). Data are given as mean ± SD. To determine the cellular uptake of the ^99mTc-labeled PSMA ligands into LNCaP cells by means of PSMA-mediated internalization at 1 h, a previously reported protocol was applied with assay concentrations of 1.0 nM and 0.2 nM for ^99mTc-labeled PSMA ligands and the reference compound [^125I]IBA-KuE, respectively. Data are corrected for non-specific binding and normalized to the specific internalization of the reference. Results are given as mean ± SD.

[1] = tested on: LNCaP tumor-bearing CB17-SCID mice; assay: Biodistribution study in LNCaP tumor-bearing mice; format: in vivo
Procedure: All animal experiments were conducted in accordance with general animal welfare regulations in Germany (German animal protection act, in the edition of the announcement, dated May 18th, 2006, as amended by Article 280 of June 19th 2020, approval no. ROB-55.2-1-2532.Vet_02-18-109 by the General Administration of Upper Bavaria) and the institutional guidelines for the care and use of animals. Male CB17-SCID mice were purchased from Charles River (Sulzfeld, Germany) and arrived at the in-house animal facility to acclimate at least 1 week before the start of the experiment. Tumor xenografts were established by subcutaneous inoculation of LNCaP cells (approx. 2 × 10^7 cells in 200 µL of a 1:1 mixture of Cultrex BME (R&D Systems, Minneapolis, United States) and DMEM/Ham's F-12) onto the right shoulder of 6-8 weeks old male CB17-SCID mice. The animals were used for experiments when tumors had grown to a size of 5-10 mm in diameter. Criteria for the exclusion of animals from the experiment were weight loss higher than 20%, tumor size above 1.5 cm^3, ulceration of the tumor, respiratory distress or change of behavior. […] Neither randomisation nor blinding was applied in the allocation of the experiments. Quarterly health monitoring was performed according to the FELASA recommendations.
Biodistribution Studies. The ^99mTc-labeled radioligands (2.7 ± 0.7 MBq, 82 ± 20 pmol) were injected into a lateral tail vein of LNCaP-tumor bearing mice (n = 4-5) under isoflurane anesthesia. Animals were sacrificed at 6 h post injection (p.i.) by carbon dioxide inhalation and blood withdrawal via cardiac puncture. Blood and tissues of interest were collected, weighed and the activity measured in a γ-counter. Radioligand uptake is given in percent of the injected dose per gram of tissue (% ID/g) and results are presented as mean ± SD.
In line with the above, the biodistribution study of [^99mTc]Tc-N4-PSMA-21 was carried out with n = 5 animals ("data set I"). […] Kidney uptake of mouse #3 (36.17 %ID/g) exceeded the value obtained from the other four animals (4.58 ± 1.44 %ID/g, mean ± SD) 7.9-fold or by more than 20 standard deviations. In addition, tumor uptake of mouse #3 (21.92 %ID/g) exceeded the value obtained from the other four animals (11.02 ± 2.22 %ID/g, mean ± SD) 2.0-fold or by more than 4 standard deviations Due to the uncertainty whether these huge deviations arise from an experimental error or might be related to strongly deviating metabolic processes e.g. abnormal kidney function in mouse #3, the study primarily presents and discusses the data set based on the other four animals (n = 4, "data set II"). A thorough evaluation and comparison was, however, also carried out including mouse #3.

PSMA = molecular target: T1, PSMA (Homo sapiens, UniProt Q04609); assay: Competitive binding study, inverse IC50 (99mTc-radioligand versus increasing IBA-KuE); conditions: inverse IC50: IBA-KuE competes against 99mTc-radioligand (0.2 nM/well); higher values = higher affinity; 1 h, 4°C, n = 3, mean ± SD; read-out: IC50, inv.
T1 construct: endogenous in cells; printed for the internalization assay of the same paragraph
T1 sequence (Q04609 whole entry): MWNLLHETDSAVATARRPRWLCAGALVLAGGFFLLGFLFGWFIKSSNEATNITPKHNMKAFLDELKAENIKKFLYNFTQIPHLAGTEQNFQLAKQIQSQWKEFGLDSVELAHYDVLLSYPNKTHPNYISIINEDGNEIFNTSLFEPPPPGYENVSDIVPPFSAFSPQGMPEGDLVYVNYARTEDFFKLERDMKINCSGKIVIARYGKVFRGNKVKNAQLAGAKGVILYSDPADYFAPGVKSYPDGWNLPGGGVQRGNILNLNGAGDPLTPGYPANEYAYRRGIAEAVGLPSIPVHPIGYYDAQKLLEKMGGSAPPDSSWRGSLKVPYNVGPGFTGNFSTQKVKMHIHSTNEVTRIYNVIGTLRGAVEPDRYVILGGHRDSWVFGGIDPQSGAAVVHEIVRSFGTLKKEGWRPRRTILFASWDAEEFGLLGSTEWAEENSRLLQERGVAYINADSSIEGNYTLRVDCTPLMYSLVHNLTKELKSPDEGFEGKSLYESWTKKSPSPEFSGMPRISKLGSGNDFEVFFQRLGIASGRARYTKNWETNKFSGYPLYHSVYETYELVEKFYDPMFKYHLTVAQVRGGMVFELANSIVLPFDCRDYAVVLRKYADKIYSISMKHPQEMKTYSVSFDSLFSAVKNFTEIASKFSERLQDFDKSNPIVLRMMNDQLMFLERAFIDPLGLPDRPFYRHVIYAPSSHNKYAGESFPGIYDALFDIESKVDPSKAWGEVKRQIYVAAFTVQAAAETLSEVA
Procedure: as §1

[2] = relative to [^99mTc]Tc-PSMA-I&S
[3] = 6 h p.i., male LNCaP tumor-bearing CB17-SCID mice, mean, n = 4-5
[4] = 6 h p.i., mean of ratios of individual animals, n = 4-5
[5] = 6 h p.i., relative to [^99mTc]Tc-PSMA-I&S

CC(C)(C)[Si](O)(c1ccc(C(=O)NC[C@@H](NC(=O)[C@@H](CCC(=O)O)NC(=O)C(CNCCN)CNCCN)C(=O)N[C@H](CCCCNC(=O)CCC(=O)NCCC[C@@H](NC(=O)CC[C@H](NC(=O)N[C@@H](CCC(=O)O)C(=O)O)C(=O)O)C(=O)O)C(=O)O)cc1)C(C)(C)C.[O]=[99Tc+]=[O] [[^99mTc]Tc-N4-PSMA-12]
internalization (% IBA-KuE) (LNCaP cells; 37°C, n = 3, as percentage of reference [125I]IBA-KuE, mean ± SD): 311 ± 16%
fold higher internalization than [^99mTc]Tc-N4-PSMA-13 (LNCaP cells; relative to [^99mTc]Tc-N4-PSMA-13): 1.9 fold
fold higher internalization than [^99mTc]Tc-N4-PSMA-21 (LNCaP cells; relative to [^99mTc]Tc-N4-PSMA-21): 1.7 fold
fold higher internalization than [^99mTc]Tc-PSMA-I&S (LNCaP cells; [2]): 1.3 fold
uptake in % iD/g adrenals [1, 3]: 0.6570 % ID/g
uptake in % iD/g blood [1, 3]: 0.0200 ± 0.0044 % ID/g and 0.0200 % ID/g
uptake in % iD/g bone [1, 3]: 0.0365 % ID/g
uptake in % iD/g heart [1, 3]: 0.0274 % ID/g
uptake in % iD/g intestine [1, 3]: 0.5391 % ID/g
uptake in % iD/g kidney [1, 3]: 12.3 ± 8.0 % ID/g and 12.2924 % ID/g
uptake in % iD/g liver [1, 3]: 0.1796 % ID/g
uptake in % iD/g lung [1, 3]: 0.0613 % ID/g
uptake in % iD/g muscle [1, 3]: 0.0110 % ID/g
uptake in % iD/g pancreas [1, 3]: 0.0206 % ID/g
uptake in % iD/g parotid gland [1, 3]: 0.0804 % ID/g
uptake in % iD/g spleen [1, 3]: 0.8928 % ID/g
uptake in % iD/g stomach [1, 3]: 0.0988 % ID/g
uptake in % iD/g submandibular gland [1, 3]: 0.1450 % ID/g
uptake in % iD/g tumor [1, 3]: 13.0231 % ID/g
tumor-to-background ratio adrenals [1, 4]: 22.15
tumor-to-background ratio blood [1, 4]: 658 ± 147 and 657.74
tumor-to-background ratio bone [1, 4]: 384.40
tumor-to-background ratio heart [1, 4]: 484.90
tumor-to-background ratio intestine [1, 4]: 57.76
tumor-to-background ratio kidney [1, 4]: 1.64 ± 1.29 and 1.64
tumor-to-background ratio liver [1, 4]: 79.92
tumor-to-background ratio lung [1, 4]: 216.68
tumor-to-background ratio muscle [1, 4]: 1265.34
tumor-to-background ratio pancreas [1, 4]: 637.21
tumor-to-background ratio parotid gland [1, 4]: 177.38
tumor-to-background ratio spleen [1, 4]: 17.89
tumor-to-background ratio stomach [1, 4]: 158.87
tumor-to-background ratio submandibular gland [1, 4]: 90.45
fold T/blood-ratio in comparison with [^99mTc]Tc-PSMA-I&S [1, 5]: 3 fold
fold T/kidney-ratio in comparison with [^99mTc]Tc-PSMA-I&S [1, 5]: 20 fold
fold decrease of blood activity at 6 h p.i. [1, 2]: 3.6 fold
inverse IC50 (PSMA): 11 ± 2.8 nM
